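Exposure lasted 48 hours, with cells grown in 96-well plates and compounds tested at five concentrations. Definition used: TGI = concentration required for complete inhibition of growth.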
Assays:
Test in all cases: NCI tumour cell line growth inhibition, 48 h
[1] = system: RXF 393 renal
[2] = system: SK-MEL-28 melanoma
[3] = system: SR leukemia
[4] = system: SF-268 CNS
[5] = system: DMS 273 small cell lung
[6] = system: U251 CNS
[7] = system: OVCAR-8 ovarian
[8] = system: A549 NSCLC
[9] = system: OVCAR-3 ovarian
[10] = system: OVCAR-5 ovarian
[11] = system: TK-10 renal
[12] = system: SF-539 CNS
[13] = system: EKVX NSCLC
[14] = system: A498 renal
[15] = system: HOP-92 NSCLC
[16] = system: NCI-H23 lung
[17] = system: OVCAR-4 ovarian
[18] = system: SN12C renal
[19] = system: HL-60(TB) leukemia
[20] = system: DMS 114 small cell lung
[21] = system: MOLT-4 leukemia
[22] = system: NCI-H226 lung
[23] = system: SNB-19 CNS
[24] = system: SK-OV-3 ovarian
[25] = system: KM20L2 colon
[26] = system: NCI-H522 lung
[27] = system: RPMI-8226 leukemia
[28] = system: MALME-3M melanoma
[29] = system: 786-0 renal
[30] = system: KM12 colon
[31] = system: LOX IMVI melanoma
[32] = system: HCT-15 colon
[33] = system: SW-620 colon
[34] = system: IGROV1 ovarian
[35] = system: UACC-257 melanoma
[36] = system: SF-295 CNS
[37] = system: HCC-2998 colon
[38] = system: M14 melanoma
[39] = system: HCT-116 colon
[40] = system: UO-31 renal
[41] = system: ACHN renal
[42] = system: UACC-62 melanoma
[43] = system: SNB-75 CNS
[44] = system: DLD-1 colon
[45] = system: SK-MEL-2 melanoma
[46] = system: SNB-78 CNS
[47] = system: XF 498 CNS
[48] = system: COLO 205 colon
[49] = system: M19-MEL melanoma
[50] = system: SK-MEL-5 melanoma
[51] = system: CCRF-CEM leukemia
[52] = system: K-562 leukemia
[53] = system: NCI-H460 lung
[54] = system: HT29 colon
[55] = system: CAKI-1 renal
[56] = system: HOP-18 NSCLC
[57] = system: LXFL 529 NSCLC
[58] = system: HOP-62 NSCLC
[59] = system: RXF-631 renal
[60] = system: MCF7 breast
[61] = system: SN12K1 renal
[62] = system: P388 leukemia

CCOC(=O)C(CNc1ccc(O)cc1)NC(=O)c1ccccc1 (centres undefined)
TGI [1]: > 100 µM | TGI [2]: > 100 µM | TGI [3]: > 100 µM | TGI [4]: > 100 µM | TGI [5]: > 100 µM | TGI [6]: > 100 µM | TGI [7]: > 100 µM | TGI [8]: > 100 µM | TGI [9]: > 100 µM | TGI [10]: > 100 µM | TGI [11]: > 100 µM | TGI [12]: > 100 µM | TGI [13]: > 100 µM | TGI [14]: > 100 µM | TGI [15]: > 100 µM | TGI [16]: > 100 µM | TGI [17]: > 100 µM | TGI [18]: > 100 µM | TGI [19]: 73.3 µM | TGI [20]: > 100 µM | TGI [21]: > 100 µM | TGI [22]: > 100 µM | TGI [23]: > 100 µM | TGI [24]: > 100 µM | TGI [25]: > 100 µM | TGI [26]: > 100 µM | TGI [27]: > 100 µM | TGI [28]: > 100 µM | TGI [29]: > 100 µM | TGI [30]: > 100 µM | TGI [31]: > 100 µM | TGI [32]: > 100 µM | TGI [33]: > 100 µM | TGI [34]: > 100 µM | TGI [35]: > 100 µM | TGI [36]: > 100 µM | TGI [37]: > 100 µM | TGI [38]: > 100 µM | TGI [39]: > 100 µM | TGI [40]: > 100 µM | TGI [41]: > 100 µM | TGI [42]: > 95 µM | TGI [43]: > 100 µM | TGI [44]: > 100 µM | TGI [45]: > 100 µM | TGI [46]: > 100 µM | TGI [47]: > 100 µM | TGI [48]: > 100 µM | TGI [49]: > 100 µM | TGI [50]: > 100 µM | TGI [51]: > 100 µM | TGI [52]: > 100 µM | TGI [53]: > 100 µM | TGI [54]: > 100 µM | TGI [55]: > 100 µM | TGI [56]: > 100 µM | TGI [57]: > 100 µM | TGI [58]: > 100 µM

Cc1ccc(C)c(NC(=O)CC2SC(=Nc3ccccc3Cl)NC2=O)c1 (centres undefined)
TGI [1]: > 100 µM | TGI [2]: > 100 µM | TGI [3]: 55.4 µM | TGI [4]: > 100 µM | TGI [5]: > 100 µM | TGI [6]: > 100 µM | TGI [7]: > 100 µM | TGI [8]: > 100 µM | TGI [9]: > 100 µM | TGI [10]: > 100 µM | TGI [11]: > 100 µM | TGI [12]: > 100 µM | TGI [59]: > 100 µM | TGI [13]: > 100 µM | TGI [14]: > 100 µM | TGI [15]: > 100 µM | TGI [16]: > 100 µM | TGI [17]: > 100 µM | TGI [18]: > 100 µM | TGI [19]: > 100 µM | TGI [20]: > 100 µM | TGI [21]: > 100 µM | TGI [22]: > 100 µM | TGI [23]: > 100 µM | TGI [24]: > 100 µM | TGI [25]: > 100 µM | TGI [26]: 96.5 µM | TGI [28]: > 100 µM | TGI [29]: > 100 µM | TGI [30]: > 100 µM | TGI [32]: > 100 µM | TGI [33]: > 100 µM | TGI [34]: > 100 µM | TGI [35]: > 100 µM | TGI [36]: > 100 µM | TGI [37]: > 100 µM | TGI [38]: > 100 µM | TGI [39]: > 100 µM | TGI [40]: > 100 µM | TGI [41]: > 100 µM | TGI [42]: > 100 µM | TGI [43]: > 100 µM | TGI [44]: > 100 µM | TGI [45]: > 100 µM | TGI [46]: > 100 µM | TGI [47]: > 100 µM | TGI [48]: > 100 µM | TGI [49]: > 100 µM | TGI [50]: > 100 µM | TGI [51]: > 100 µM | TGI [53]: > 100 µM | TGI [54]: > 100 µM | TGI [55]: > 100 µM | TGI [56]: > 100 µM | TGI [57]: > 100 µM | TGI [58]: > 100 µM

COc1cc(C2c3cc4c(cc3[C@@H](Oc3ccc(F)cc3)C3COC(=O)[C@H]23)OCO4)cc(OC)c1O (some centres undefined)
TGI [2]: > 100 µM | TGI [4]: > 100 µM | TGI [5]: 47.2 µM | TGI [6]: > 100 µM | TGI [7]: > 100 µM | TGI [8]: > 100 µM | TGI [9]: 72.3 µM | TGI [10]: > 100 µM | TGI [13]: > 100 µM | TGI [15]: > 100 µM | TGI [16]: > 100 µM | TGI [17]: > 100 µM | TGI [60]: > 58 µM | TGI [18]: > 100 µM | TGI [19]: 1.06 µM | TGI [21]: 4.66 µM | TGI [25]: > 100 µM | TGI [26]: > 100 µM | TGI [27]: 6.64 µM | TGI [28]: 31.8 µM | TGI [30]: 27.9 µM | TGI [31]: > 100 µM | TGI [32]: > 100 µM | TGI [33]: > 100 µM | TGI [34]: > 100 µM | TGI [35]: 22.8 µM | TGI [36]: > 60 µM | TGI [37]: > 100 µM | TGI [39]: > 100 µM | TGI [40]: > 100 µM | TGI [42]: > 100 µM | TGI [44]: > 100 µM | TGI [45]: > 100 µM | TGI [61]: > 100 µM | TGI [48]: 4.86 µM | TGI [49]: 40.4 µM | TGI [50]: 10.9 µM | TGI [51]: > 23.2 µM | TGI [52]: 30.4 µM | TGI [62]: > 21.2 µM | TGI [53]: 25.4 µM | TGI [54]: 20 µM | TGI [55]: 14.5 µM | TGI [56]: > 100 µM | TGI [58]: 0.95 µM

Source: PubChem BioAssay (NCI)
